Measured values reported in patent US9244073B2, “Assays for detecting enzymatic activity” (Wellstat Diagnostics, LLC, priority 2011, dated 2016).
Primed or numbered codes have the meaning given here. KLCBiot = lysine with long-chain biotin conjugated to the side-chain primary amine (Lysine-Long-Chain-Biotin); mPeg2 = hydrophilic 9-atom polyethylene (PEG) spacer; Bz′ = not defined here

Legend:
Assay type in all cases: biochemical
[1] = test system: bovine FX; assay: Detecting plasma FIX activity by detecting FXa activity using an immunoassay (ECL); conditions: diluted reference plasma
Protocol: A FIX activity calibrator curve was set up in a 96-well U bottom microtiter plate, which was equilibrated to 37° C. in an incubator. All coagulating factor reagents were from Haematologic Technologies, Inc. ((HTI), Essex Junction, Vt.), unless specifically noted. To 50 μL of a factor reagent containing 1.6 nM bovine FXIa (Cat: HCX1A-0160), 0.0681 nM bovine α-thrombin (Cat: BCT-1020), 24.5 nM bovine FX (BCX-1050), […] FVIII (Cat: PRO-318, PROSPEC, Rehovot, Israel), 100 μM phosphorliposome (80% phosphatidylcholine and 20% phosphatidylserine) and 0.75 mM Gly-Pro-Arg-Pro amide (Cat: GPRP-NH2. Sigma, St. Louis; SEQ ID NO:32), 25 μL of a diluted reference plasma (HEMOSIL™ Calibration Plasma, Cat: 0020003700, Diapharma Group Inc., Columbus, Ohio) containing 24.4, 8.13, 2.71, 0.904, 0.301, 0.100 and 0.0335 mU/mL of FIX in the assay buffer (Example 4) were added, mixed and incubated for exactly 10 minutes in a hot plate set at 37° C. After the incubation, to the 75 μL of assay mixture, 50 μL of a master mix of FXa detection reagent (Example 4), containing 200 μg/mL of M280-SA beads, 600 ng/mL of a peptide (peptide sequence III), 1000 ng/mL of TAG Plus anti-FLAG® M1 antibody (Example 2), and 30 μg/mL I-2581 (synthetic thrombin inhibitor, cat: 82110810, DiaPharma Group Inc. West Chester, Ohio 45069) in assay buffer (Example 4) was added and incubated for a final 20 minutes at 37° C. After the incubation, the beads were washed once in 150 μL of a PBS-based buffer solution (Example 3) and were resuspended in 150 μL of the same buffer before beads were read in a M1MR analyzer (BioVeris).

[2] = test system: bovine factor Xa; assay: Detecting heparin activity with an ECL-based FXa activity immunoassay (with human antithrombin)
Sequence of bovine factor Xa (P01008 33-464): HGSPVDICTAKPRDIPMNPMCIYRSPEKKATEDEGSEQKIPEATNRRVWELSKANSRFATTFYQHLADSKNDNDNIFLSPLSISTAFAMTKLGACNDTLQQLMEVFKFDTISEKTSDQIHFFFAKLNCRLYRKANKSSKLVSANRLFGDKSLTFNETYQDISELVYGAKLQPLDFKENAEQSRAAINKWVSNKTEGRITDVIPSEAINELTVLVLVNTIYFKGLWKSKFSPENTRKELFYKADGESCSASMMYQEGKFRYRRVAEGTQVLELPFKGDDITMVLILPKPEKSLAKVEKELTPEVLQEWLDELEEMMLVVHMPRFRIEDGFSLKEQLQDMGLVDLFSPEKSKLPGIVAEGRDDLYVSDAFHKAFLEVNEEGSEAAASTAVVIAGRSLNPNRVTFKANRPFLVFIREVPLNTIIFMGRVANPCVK
Protocol: A heparin activity calibrator curve was set up in a 96-well U bottom microtiter plate, which was equilibrated to 37° C. in an incubator. To each well, 25 μL of 100, 50, 25, 12.5, 6.25 and 3.13 mIU/mL heparin prepared from a heparin sodium Salt (Cat: H4784-2500MG, Sigma, St. Louis) and 25 μL of 1.0 IU/mL human antithrombin (from kit of BIOPHEN Heparin Anti-Xa, Ref: 221010, Aniara Diagnostica LLC, Columbus, Ohio) were added and incubated for 2 minutes at 37° C. Then to the mixture, 25 μL of 8.0 μg/mL bovine factor Xa (from kit of BIOPHEN Heparin Anti-Xa, Ref: 221010, Aniara Diagnostica LLC, Columbus, Ohio) was added, followed immediately with 25 μL of a master mix of FXa detection reagent containing 400 μg/mL of M280-SA beads, 1.2 μg/mL of a peptide (peptide sequence V), 2.0 μg/mL of TAG Plus anti-FLAG® M1 antibody (Example 2) and 25 mM CaCl2. The subsequent mixture was incubated for a final 20 minutes at 37° C. After the incubation, the beads were washed once in 150 μL of the PBS-based buffer solution (Example 3) and were resuspended in 150 μL of the same buffer before beads were read in a M1MR Analyzer (BioVeris).

[3] = test system: FXa; assay: Detecting FXa activity by detection of a neoepitope with TAG Plus anti-FLAG M1 detector antibody (ECL immunoassay)
Sequence of FXa (P00742 41-179 limits assumed): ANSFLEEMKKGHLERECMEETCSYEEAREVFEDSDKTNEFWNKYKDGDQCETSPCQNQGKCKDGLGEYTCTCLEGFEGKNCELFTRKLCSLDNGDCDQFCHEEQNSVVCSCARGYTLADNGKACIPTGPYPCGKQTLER
Sequence of FXa (P00742 235-488 limits assumed): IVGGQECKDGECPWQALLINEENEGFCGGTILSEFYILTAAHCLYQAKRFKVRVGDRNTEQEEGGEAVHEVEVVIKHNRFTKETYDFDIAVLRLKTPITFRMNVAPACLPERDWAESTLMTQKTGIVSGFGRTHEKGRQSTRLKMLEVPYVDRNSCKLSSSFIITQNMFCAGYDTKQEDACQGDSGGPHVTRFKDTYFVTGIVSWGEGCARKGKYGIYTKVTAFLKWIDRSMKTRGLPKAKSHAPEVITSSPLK
From the text: FXa activity can be measured using peptides comprising a FXa recognition site (-IEGR-) (SEQ ID NO:1) at their N-terminus followed by an amino acid sequence which can be cleaved “off” by FXa. For example, peptide sequence III, below, can be cleaved by FXa to produce peptide sequence IV below. The FXa cleavage of the peptide bond after the arginine residue of the -IEGR- sequence (SEQ ID NO:1) produces a free NH2 group at the N-terminal of the peptide sequence (sequence IV) and the peptide sequence becomes a new epitope (neoepitope) after cleavage.
A FXa activity calibrator curve was set up in a 96-well U bottom microtiter plate containing 100 μL of a 3-fold serial dilution of FXa at 500, 167, 55.6, 18.5, 6.17, 2.06 and 0.686 ng/mL in an assay buffer [50 mM Tris-HCl (pH 7.4), 100 mM NaCl, 0.5% BSA, 10 mg/mL ciprofloxacin, 0.5% Tween-20 and 7.0 mM CaCl2] and 50 μL of a master mix of FXa detection reagent containing 200 μg/mL of M280-SA beads, 600 ng/mL of a peptide sequence V and 1000 ng/mL of TAG Plus anti-FLAG® M1 antibody (Example 2) in the same assay buffer. The peptide sequence V comprises peptide sequence III and a sequence HHHHHH(mPeg2)(KLCBiot)-amide (SEQ ID NO:9). The HHHHHH(mPeg2) (SEQ ID NO:9), a mini-PEG molecule with 9 carbon polyethylene molecule, serves as a spacer, which was conjugated with a lysine at its C-terminus. A biotin molecule was conjugated to the primary amine group on the side chain of the lysine. The peptide can be captured through the high affinity interaction between biotin and streptavidin molecule.
The plate was incubated on a hot plate (Digital Heatblock, Cat. 12621-100, VWR International, LLC., West Chester, Pa. 19380) at 37° C. for 10 or 20 minutes. After the incubation, the beads were washed once in 150 μL of the PBS-based buffer solution (Example 1) and recovered by attaching a plate magnet to the 96-well plate (LIFESEP™ 96F, Dexter Magnetic Technologies Inc., Elk Grove Village, Ill. 60007). Beads were resuspended in 150 μL of the PBS-based buffer and read in a M1MR analyzer. […] Under both incubation conditions, FXa activities were detectable at 1.00 ng/mL or lower concentrations of FXa (signal/background ≧3.0). This lower detection limit is unexpectedly much better than that achieved in Example 1.

[4] = test system: FXa; assay: Detecting FXa activity by detection of a neoepitope, competitive immunoassay format (ECL); conditions: for % Signal Decrease / Mean Signal: 15 minutes at 37° C.
From the text: Another method for detecting FXa activity uses a competitive immunoassay format. For example, peptide sequence VI, below, comprises a FXa recognition site (-IEGR-) (SEQ ID NO:1) at its N-terminus and the peptide sequence IV-amide (DYKDDDDKGS-amide) (SEQ ID NO:4) at its C-terminus. The FXa cleavage of the peptide bond after the arginine residue of -IEGR- (SEQ ID NO:1) sequence produces a neoepitope (SEQ ID NO:4), which can be measured with a TAG Plus-conjugated peptide (sequence VII) and a capture antibody in a competitive immunoassay format.
A FXa activity calibrator curve was set up in a 96-well U bottom microtiter plate containing 100 μL of a 3-fold serial dilution of FXa at 500, 167, 55.6, 18.5, 6.17, 2.06 and 0.686 ng/mL in the assay buffer (Example 4) and 50 μL of a master mix of FXa detection reagent containing 200 μg/mL of M280-SA beads prebound with biotinylated capture antibody (5.0 μg antibody per 1.0 mg of beads) (anti-FLAG® MD, 200 μg/mL of the NH2-IEGRDYKDDDDKGS-amide (Peptide sequence VI; SEQ ID NO:5) and 100 ng/mL of NH2-DYKDDDDKGS-TAG Plus (Peptide sequence VII; SEQ ID NO:4) in the same assay buffer. The plate was incubated on a hot plate (Example 4) at 37° C. for 15 minutes. After the incubation, the beads were washed once in 150 μL of the PBS-based buffer solution (Example 3) and were resuspended in 150 μL of the PBS-based buffer and read in a M1MR analyzer (BioVeris). FXa activities were detectable at 1.0 ng/mL or lower concentrations which produced about a 10% decrease of the background signals (the sample without FXa).

[5] = 10 minute incubation, FXa 0.686 ng/mL
[6] = 10 minute incubation, FXa 2.06 ng/mL
[7] = 10 minute incubation, FXa 6.17 ng/mL
[8] = 10 minute incubation, FXa 18.5 ng/mL
[9] = 10 minute incubation, FXa 55.6 ng/mL
[10] = 10 minute incubation, FXa 167 ng/mL
[11] = 10 minute incubation, FXa 500 ng/mL
[12] = 20 minute incubation, FXa 0.686 ng/mL
[13] = 20 minute incubation, FXa 2.06 ng/mL
[14] = 20 minute incubation, FXa 6.17 ng/mL
[15] = 20 minute incubation, FXa 18.5 ng/mL
[16] = 20 minute incubation, FXa 55.6 ng/mL
[17] = 20 minute incubation, FXa 167 ng/mL
[18] = 20 minute incubation, FXa 500 ng/mL

## FIX: FIX in diluted reference plasma (HEMOSIL Calibration Plasma)
[1]; FIX 0.0335 mU/mL
  Mean Signal: 3665
  Signal/Background: 1.1
[1]; FIX 0.100 mU/mL
  Mean Signal: 4050
  Signal/Background: 1.2
[1]; FIX 0.301 mU/mL
  Mean Signal: 5626
  Signal/Background: 1.6
[1]; FIX 0.904 mU/mL
  Mean Signal: 8707
  Signal/Background: 2.5
[1]; FIX 2.71 mU/mL
  Mean Signal: 16884
  Signal/Background: 4.9
[1]; FIX 8.13 mU/mL
  Mean Signal: 30879
  Signal/Background: 9.0
[1]; FIX 24.4 mU/mL
  Mean Signal: 40234
  Signal/Background: 11.7

## heparin sodium Salt
[2]; Heparin 3.13 mIU/mL
  % Signal Decrease: −19%
  Mean Signal: 81999
[2]; Heparin 6.25 mIU/mL
  % Signal Decrease: −38%
  Mean Signal: 62502
[2]; Heparin 12.5 mIU/mL
  % Signal Decrease: −60%
  Mean Signal: 40868
[2]; Heparin 25.0 mIU/mL
  % Signal Decrease: −81%
  Mean Signal: 19648
[2]; Heparin 50.0 mIU/mL
  % Signal Decrease: −93%
  Mean Signal: 7203
[2]; Heparin 100 mIU/mL
  % Signal Decrease: −97%
  Mean Signal: 3322

## Bz-IEGRDYKDDDDKGSHHHHHH(mPeg2)(KLCBiot)-amide ({Bz′}-IEGRDYKDDDDKGSHHHHHH-{mPeg2-KLCBiot-NH2}) [Peptide sequence V]
[3]; [5]
  Mean Signal: 856
  Signal/Background: 2.5
[3]; [6]
  Mean Signal: 1427
  Signal/Background: 4.1
[3]; [7]
  Mean Signal: 3105
  Signal/Background: 9.0
[3]; [8]
  Mean Signal: 8793
  Signal/Background: 25
[3]; [9]
  Mean Signal: 33734
  Signal/Background: 98
[3]; [10]
  Mean Signal: 113240
  Signal/Background: 328
[3]; [11]
  Mean Signal: 298048
  Signal/Background: 864
[3]; [12]
  Mean Signal: 1047
  Signal/Background: 3.3
[3]; [13]
  Mean Signal: 2109
  Signal/Background: 6.6
[3]; [14]
  Mean Signal: 6035
  Signal/Background: 19
[3]; [15]
  Mean Signal: 20653
  Signal/Background: 65
[3]; [16]
  Mean Signal: 73974
  Signal/Background: 232
[3]; [17]
  Mean Signal: 224915
  Signal/Background: 706
[3]; [18]
  Mean Signal: 497703
  Signal/Background: 1562

## NH2-IEGRDYKDDDDKGS-amide (H-IEGRDYKDDDDKGS-NH2) [Peptide sequence VI]
[4]; FXa 1.0 ng/mL or lower, background = sample without FXa
  decrease of the background signals at the detectable FXa concentration: ~10%
[4]; Xa 0.686 ng/mL
  % Signal Decrease: −8.5%
  Mean Signal: 84026
[4]; Xa 2.06 ng/mL
  % Signal Decrease: −22%
  Mean Signal: 71945
[4]; Xa 6.17 ng/mL
  % Signal Decrease: −42%
  Mean Signal: 52963
[4]; Xa 18.5 ng/mL
  % Signal Decrease: −60%
  Mean Signal: 36383
[4]; Xa 55.6 ng/mL
  % Signal Decrease: −75%
  Mean Signal: 22509
[4]; Xa 167 ng/mL
  % Signal Decrease: −84%
  Mean Signal: 14300
[4]; Xa 500 ng/mL
  % Signal Decrease: −89%
  Mean Signal: 9830
